{
  "source": "paper PMC7367283",
  "about": "“A PIP2 substitute mediates voltage sensor-pore coupling in KCNQ activation” (Communications Biology, 2020)",
  "molecular_target": "pseudo wild-type KCNQ1 (with mutations C214A/G219C/C331A) (Homo sapiens, UniProt P51787, C214A/C331A/G219C)",
  "test": "Voltage-clamp fluorometry (VCF) of pseudo WT KCNQ1 in Xenopus oocytes",
  "format": "cell-based",
  "conditions": "for G/Gmax Mean: Fig. 3g; for F/Fmax Mean: Fig. 3i",
  "excerpt": "We employed voltage-clamp fluorometry (VCF) to measure the effects of CP1 on voltage-sensor activation. The emission (F) of Alexa 488 C5 maleimide attached to the S3–S4 linker, at residue C219, of the pseudo wild-type KCNQ1 (with mutations C214A/G219C/C331A) reported VSD movements in response to voltage changes, while the ionic current reported pore opening[45] (Fig. 3f, h). Similar to the WT KCNQ1, the G–V relation of the pseudo WT KCNQ1 shifted to negative voltages by −53.3 ± 3.1 mV in the presence of 10 µM CP1 (Fig. 3g). […] However, the F–V relationship shifted only by −17.3 ± 3.6 mV. […] (Supplementary Fig. 3). […] It is also apparent that at extreme negative voltages ≤ −130 mV, where the voltage sensor seemed not activated (F ~ 0, Fig. 3i), a fraction of the channels was constitutively open (G > 0, Fig. 3b, g).\nOocytes were labeled on ice for 45 min with 10 μM Alexa 488 C5 maleimide (Molecular Probes, Eugene, OR) in high K^+ solution (in mM: 98 KCl, 1.8 CaCl2, and 5 HEPES, pH 7.6). Then the cells were washed with ND96 solution and kept on ice until recording. A CA-1B amplifier was used to record whole-oocyte currents in ND96 solution. Fluorescent signals were recorded simultaneously using a Pin20A photodiode (OSI Optoelectronics, CA), filtered using a FITC filter cube (Leica, Germany, for Alexa 488), and then amplified using a patch-clamp amplifier (EPC10, HEKA, Germany).",
  "data": [
    {"smiles": "O=S(=O)([O-])Oc1c(-c2sc3c(ccc4cccc(Cl)c43)c2OS(=O)(=O)[O-])[nH]c2ccc(Br)cc12.[Na+].[Na+]", "note": "[CP1, DISODIUM 5-BROMO-2-[9-CHLORO-3-(SULFONATOOXY) NAPHTHO [1,2-B] THIEN-2-YL]-1H-INDOL-3-YL SULFATE]", "values": [
      {"measurement": "shift of F–V relationship (VSD activation)", "setting": "10 µM CP1", "value": "−17.3 ± 3.6", "unit": "mV"},
      {"measurement": "shift of G–V relation", "setting": "10 µM CP1", "value": "−53.3 ± 3.1", "unit": "mV"},
      {"measurement": "G/Gmax Mean", "setting": "10 µM CP1, 0 mV", "value": 0.7707},
      {"measurement": "G/Gmax Mean", "setting": "10 µM CP1, 10 mV", "value": 0.7200},
      {"measurement": "G/Gmax Mean", "setting": "10 µM CP1, 20 mV", "value": 0.6664},
      {"measurement": "G/Gmax Mean", "setting": "10 µM CP1, 40 mV", "value": 0.5879},
      {"measurement": "G/Gmax Mean", "setting": "10 µM CP1, -10 mV", "value": 0.8231},
      {"measurement": "G/Gmax Mean", "setting": "10 µM CP1, -20 mV", "value": 0.8668},
      {"measurement": "G/Gmax Mean", "setting": "10 µM CP1, -30 mV", "value": 0.9194},
      {"measurement": "G/Gmax Mean", "setting": "10 µM CP1, -40 mV", "value": 0.9570},
      {"measurement": "G/Gmax Mean", "setting": "10 µM CP1, -50 mV", "value": 0.9837},
      {"measurement": "G/Gmax Mean", "setting": "10 µM CP1, -60 mV", "value": 1.0000},
      {"measurement": "G/Gmax Mean", "setting": "10 µM CP1, -70 mV", "value": 0.9888},
      {"measurement": "G/Gmax Mean", "setting": "10 µM CP1, -80 mV", "value": 0.9295},
      {"measurement": "G/Gmax Mean", "setting": "10 µM CP1, -90 mV", "value": 0.8170},
      {"measurement": "G/Gmax Mean", "setting": "10 µM CP1, -100 mV", "value": 0.6596},
      {"measurement": "G/Gmax Mean", "setting": "10 µM CP1, -110 mV", "value": 0.4846},
      {"measurement": "G/Gmax Mean", "setting": "10 µM CP1, -120 mV", "value": 0.3240},
      {"measurement": "G/Gmax Mean", "setting": "10 µM CP1, -130 mV", "value": 0.2412},
      {"measurement": "G/Gmax Mean", "setting": "10 µM CP1, -140 mV", "value": 0.1631},
      {"measurement": "F/Fmax Mean", "setting": "10 µM CP1, 0 mV", "value": 0.9059},
      {"measurement": "F/Fmax Mean", "setting": "10 µM CP1, 10 mV", "value": 0.9298},
      {"measurement": "F/Fmax Mean", "setting": "10 µM CP1, 20 mV", "value": 0.9639},
      {"measurement": "F/Fmax Mean", "setting": "10 µM CP1, 30 mV", "value": 0.9526},
      {"measurement": "F/Fmax Mean", "setting": "10 µM CP1, 40 mV", "value": 1.0000},
      {"measurement": "F/Fmax Mean", "setting": "10 µM CP1, -10 mV", "value": 0.8465},
      {"measurement": "F/Fmax Mean", "setting": "10 µM CP1, -20 mV", "value": 0.8444},
      {"measurement": "F/Fmax Mean", "setting": "10 µM CP1, -30 mV", "value": 0.7943},
      {"measurement": "F/Fmax Mean", "setting": "10 µM CP1, -40 mV", "value": 0.7337},
      {"measurement": "F/Fmax Mean", "setting": "10 µM CP1, -50 mV", "value": 0.6357},
      {"measurement": "F/Fmax Mean", "setting": "10 µM CP1, -60 mV", "value": 0.5712},
      {"measurement": "F/Fmax Mean", "setting": "10 µM CP1, -70 mV", "value": 0.4588},
      {"measurement": "F/Fmax Mean", "setting": "10 µM CP1, -80 mV", "value": 0.4066},
      {"measurement": "F/Fmax Mean", "setting": "10 µM CP1, -90 mV", "value": 0.2751},
      {"measurement": "F/Fmax Mean", "setting": "10 µM CP1, -100 mV", "value": 0.1745},
      {"measurement": "F/Fmax Mean", "setting": "10 µM CP1, -110 mV", "value": 0.1186},
      {"measurement": "F/Fmax Mean", "setting": "10 µM CP1, -120 mV", "value": 0.0457},
      {"measurement": "F/Fmax Mean", "setting": "10 µM CP1, -130 mV", "value": 0.0520},
      {"measurement": "F/Fmax Mean", "setting": "10 µM CP1, -140 mV", "value": 0.0265}
    ]}
  ]
}
